Data taken from patent US20260285857A1, “BICYCLIC AND HETEROCYCLIC AMIDE COMPOUNDS” (priority 2024, published 2026).

Tested on: immunoglobulin light chain protein WIL-FL T46L
Experiment: Differential scanning fluorimetry (thermal shift) assay
Format: binding
Conditions: temperature shift [Tm]compound-[Tm]vehicle, recombinant WIL-FL T46L

## Cc1cc(N2CC[C@](C)(c3ccccc3)C2)cn2nc(C34CC(CO3)C4c3nc(NC(=O)[C@@H]4C[C@H]4C(=O)O)n[nH]3)nc12 (stereo partly shown) [Compound 557]
Table B
  DSF: ***** (>2.5° C.=*****)

## Cc1cc(N2CC[C@](C)(c3ccccc3)C2)cn2nc(C(=O)N3CC4C3CCCN4c3cccc(C(=O)O)n3)nc12 (stereo partly shown) [Compound 247]
Table A
  DSF: ***** (>2.5° C.=*****)

## Cc1cc(N2CC[C@](C)(c3ccccc3)C2)cn2nc(C(=O)N3CCn4nc(-c5cc(C(=O)O)ccn5)nc4C3)nc12 [Compound 405]
Table A
  DSF: ***** (>2.5° C.=*****)

## Cc1cc(N2CC3(CCC3c3cccc(F)c3)C2)cn2nc(C(=O)N3CC[C@@]4(CCN(c5cccc(C(=O)O)n5)C4)C3)nc12 (stereo partly shown) [Compound 738]
Table B
  DSF: ***** (>2.5° C.=*****)

## Cc1cc(N2CC[C@](C)(c3ccccc3F)C2)cn2nc(C(=O)N3CC[C@@]4(CCN(c5cccc(C(=O)O)n5)C4)C3)nc12 [Compound 749]
Table B
  DSF: ***** (>2.5° C.=*****)

## Cc1cc(N2CC[C@](C)(c3ccccc3)C2)cn2nc(C(=O)NC3CC4(C3)CC(N3CCC(C(=O)O)CC3)C4)nc12 (stereo partly shown) [Compound 599]
Table B
  DSF: ***** (>2.5° C.=*****)

## Cc1cc(N2CC[C@](C)(c3ccccc3)C2)cn2nc(C34CC(C(=O)NC5CCOC5)(CO3)C4)nc12 (stereo partly shown) [Compound 446]
Table B
  DSF: ***** (>2.5° C.=*****)
